Results on 3 compounds are retold here after publication PMC4267740, “Unprecedented Therapeutic Potential with a Combination of A2A/NR2B Receptor Antagonists as Observed in the 6-OHDA Lesioned Rat Model of Parkinson's Disease” (PLoS ONE, 2014).

Structures are written as SMILES. “Also recorded” adds a separate entry of the source.

The subject of assay [1] is unilateral 6-OHDA-lesioned rats. Briefly: Rearing counts in actometers, monotherapy (without L-Dopa). Format: in vivo, rat. How it is done:
(§1) To protect norepinephrinergic neurons, animals were administered imipramine HCl (Sigma) 15 minutes before surgery. They were subsequently anesthetized with ketamine (Ceva, 75 mg/kg) and xylazine (Bayer, 10 mg/kg) and placed in stereotaxic frame (David Kopf Instrument). 6-OHDA was injected into the right ascending medial forebrain bundle at the following coordinates (in mm) relative to bregma and surface of the dura, AP = −3.5, ML = −1.5, DV = −8.7. Each rat received one injection of 6-OHDA (4 µg/µl) over a period of 5 minutes (0.5 µl/min) for a total of 10 µg per rat. Animals were monitored for 3 weeks to ensure full recovery and habituation to the environment and experimenters.
(§2) On day 21 post surgery, all rats were challenged with a small dose of subcutaneously administered apomorphine (Sigma, 0.05 mg/kg). Rats showing more than 90 contralateral rotations (360°) over a 45-minute recording period were included in the study. […] For each experiment, rats were allocated to the different experimental groups in order to get the same mean level of basal activity measured at the apomorphine challenge amongst the different experimental groups.
(§3) Drug-naïve separate rats were tested individually in clear acrylic chambers (LE8811 IR, Panlab). Locomotion was detected and measured by 16 infrared light-beam sensors located on each side of the enclosure at a height of 3 cm. Sensors were spaced such that the light beams formed a matrix of 15×15 squares over the surface. Activity counts were recorded on a computer and Acti-Track software (Actitrack, Panlab) was used to convert raw data into “distance traveled” and “rearing counts” for analysis as relevant dependent variables.
(§4) Six different combinations of A2A/NR2B antagonists were tested without L-Dopa. For each combination, there were four different procedures: vehicle only; A2A antagonist followed by vehicle; vehicle followed by the NR2B antagonist and A2A antagonist followed by the NR2B antagonist. The drugs, doses and combinations are described in Table 3. After drug administration, rats were placed in actometers (open-field) for monitoring the general level of motor activity (distance traveled and rearing counts).
(§5) Before undertaking the study, each A2A and NR2B antagonist was tested individually. The doses were selected on the basis of preliminary dose-response curves performed separately for each drug and submaximal dose (i.e. response observed is not at its maximal level) of each drug was selected for the combination studies. The two drugs were administered separately via an intraperitoneal (ip) injection with a 2-minute interval between the two drugs. Five minutes after the second injection, animals were placed in the testing cage for behavioural recording. Due to formulation and exposure issues, Tozadenant and Radiprodil had to be administered orally and therefore recording was started 60 minutes post dosing at this corresponds to maximum plasma concentrations. Eight drug-naïve animals were used for each of the four procedures; 32 in total for each combination. All behavioral experiments were conducted between 8.00 AM and 2.00 PM at the latest. Preliminary pharmacokinetic assays investigated the plasma and brain disposition of selected drugs administered alone or in combination (ie. Tozadenant/Radiprodil, and Sch-58261/Co-101244; 3 animals per group). Tozadenant and Radiprodil were measured in samples obtained 60 minutes after single oral administration at 30 mg/kg. Sch-58261 and Co-101244 were measured in samples collected 90 min after single intraperitoneal administration at 3 mg/kg.
(§6) The effects of A2A and NR2B antagonists on the level of motor activity (i.e. distance traveled and rearing counts) were assessed with three-way mixed ANOVA, combining the A2A receptor antagonist (2 levels, vehicle and the A2A drug) and the NR2B antagonist (2 levels, vehicle and the NR2B drug) as between-group factors with the time as within-subjects factor (6 or 9 levels). […]

The test system is the same in assay [2]. Briefly: Distance traveled in actometers, monotherapy (without L-Dopa). The class given is in vivo, rat. The method, then:
as §1, §2, §3, §4, §5, §6

A further assay concerns the target A1. More on the design: method as in PMID 21810444, PMID 9933143, PMID 17236762. Particulars: in vitro binding; rat or human; cited from earlier work.
In the next assay the target is A2A. More on the design: method as in PMID 21810444, PMID 9933143, PMID 17236762. The settings on record: in vitro binding; rat or human; cited from earlier work.
The subject of the next assay is NR2B. The settings on record: In vitro Binding; cited from earlier work.
A further assay has as its system NR2A. On the set-up: method as in PMID 19594762. The settings on record: In vitro Binding; cited from earlier work.
The mark [3] stands for this setting: Sch-58261 1 mg/kg ip, Co-101244 1 mg/kg ip.
[4] abbreviates: Sch-58261 1 mg/kg ip, Merck 22 1 mg/kg ip.
Setting [5] is: Tozadenant 30 mg/kg po, Radiprodil 3 mg/kg po.
[6] abbreviates: Preladenant 0.1 mg/kg ip, Radiprodil 1 mg/kg ip.

On to `Nc1nc2c(cnn2CCc2ccccc2)c2nc(-c3ccco3)nn12` [Sch-58261], for which, in assay [1] (setting [3]), the “Rearing counts, drugs alone vs vehicle, p (Newman-Keuls)” value is reported as “Both p<0.05”; the “Rearing counts, drugs main effect, p (three-way mixed ANOVA)” value (“Rearing counts, drugs main effect, p” below) is on record as “p<0.001”; the “Rearing counts, drugs × time effect, p (three-way mixed ANOVA)” value (from here on “Rearing counts, drugs × time effect, p”) is recorded as “p<0.001”. In assay [1] (setting [4]), the “Rearing counts, drugs alone vs vehicle, p (Newman-Keuls)” value is “Sch-58261 p<0.05”; the “Rearing counts, drugs main effect, p” value is listed as “p<0.001”; the “Rearing counts, drugs × time effect, p” value is “p<0.001”. Moreover, in assay [2] (setting [3]), the “Distance traveled, drugs alone vs vehicle, p (Newman-Keuls)” value was “Both p<0.01”; the “Distance traveled, drugs main effect, p (three-way mixed ANOVA)” value (“Distance traveled, drugs main effect, p” for short) is recorded as “p<0.001”; the “Distance traveled, drugs × time effect, p (three-way mixed ANOVA)” value is on record as “p<0.001”. In assay [2] (setting [4]), the “Distance traveled, drugs alone vs vehicle, p (Newman-Keuls)” value was “Both p<0.01”; the “Distance traveled, drugs main effect, p” value is “p<0.001”; the “Distance traveled, drugs × time effect, p (three-way mixed ANOVA)” value is recorded as “Not significant”. Further, the “Distance traveled, drug alone in comparison to vehicle-treated controls” value in assay [2] (drug administered alone) is given as “significant increase”.

Broadly, the Ki is a dissociation constant, usually derived from enzyme kinetics or from competition with a known ligand. Take `COc1ccc(N2CCOCC2)c2sc(NC(=O)N3CCC(C)(O)CC3)nc12` [Tozadenant]: in assay [1] (setting [5]), the “Rearing counts, drugs alone vs vehicle, p (Newman-Keuls)” value was “exception; also recorded: Not significant”; the “Rearing counts, drugs main effect, p” value is on record as “p<0.01”; the “Rearing counts, drugs × time effect, p” value is “p<0.001”. Moreover, at A1, the Ki is 1320 nM. Further, in assay [2] (setting [5]), the “Distance traveled, drugs alone vs vehicle, p (Newman-Keuls)” value was “not all drugs when administered alone improved distance traveled; also recorded: Not significant”; the “Distance traveled, drugs main effect, p” value is recorded as “p<0.05”; the “Distance traveled, drugs × time effect, p (three-way mixed ANOVA)” value was “p<0.001”. In addition, the inhibition constant Ki at A2A is 4.9 nM.

As a reminder, the IC50 is the concentration that gives 50% inhibition. As to `O=C(Nc1ccc2[nH]c(=O)oc2c1)C(=O)N1CCC(Cc2ccc(F)cc2)CC1` [Radiprodil], in assay [1] (setting [6]), the “Rearing counts, drugs alone vs vehicle, p (Newman-Keuls)” value was “Radiprodil, not significant”; the “Rearing counts, drugs main effect, p” value is on record as “p<0.001”; the “Rearing counts, drugs × time effect, p” value is “p<0.01”. Also, in assay [1] (setting [5]), the “Rearing counts, drugs alone vs vehicle, p (Newman-Keuls)” value was “Not significant”; the “Rearing counts, drugs main effect, p” value is “p<0.01”; the “Rearing counts, drugs × time effect, p” value was “p<0.001”. The “Rearing counts, drug alone in comparison to vehicle rats” value in assay [1] (drug administered alone) is “not”. Also, the half-maximal inhibitory concentration (IC50) in the assay with NR2B was 3 to 10 nM. Further, in assay [2] (setting [6]), the “Distance traveled, drugs main effect, p” value was “p<0.001” and the “Distance traveled, drugs × time effect, p (three-way mixed ANOVA)” value is given as “p<0.001”. Further, in assay [2] (setting [5]), the “Distance traveled, drugs alone vs vehicle, p (Newman-Keuls)” value is recorded as “not all drugs when administered alone improved distance traveled; also recorded: Not significant”; the “Distance traveled, drugs main effect, p” value is given as “p<0.01”; the “Distance traveled, drugs × time effect, p (three-way mixed ANOVA)” value is given as “p<0.001”. For the same compound, in the assay on NR2A, the 50% inhibitory concentration (IC50) is more than 10000 nM.
